Laboratory results from patent US20170064988A1, “Delivery Systems for Natural High-Potency Sweetener Compositions, Methods for Their Formulation, and Uses” (The Coca-Cola Company, priority 2007, published 2017).

Columns and labels:
[1] = Dissolution of spray-dried amorphous rebaudioside A in water; assay type: physicochemical; conditions: room temperature, in 5 minutes
Protocol: A solution of rebaudioside A (>97% pure by HPLC) was prepared in double distilled water (12.5 gm in 50 mL, 25% concentration) by stirring the mixture at 40° C. for 5 minutes. An amorphous rebaudioside form of A was formed by immediately using the clear solution for spray drying with the Lab-Plant spray drier SD-04 instrument (Lab-Plant Ltd., West Yorkshire, U.K.). The solution was fed through the feed pump into the nozzle atomizer which atomized it into a spray of droplets with the help of a constant flow of nitrogen/air. […] This dry powder (11-12 g, H2O 6.74%) was discharged continuously from the drying chamber and was collected in a bottle. The material was dissolved rapidly in water at room temperature up to a concentration of 35.0% (w/v) in 5 minutes.

[2] = Rate of dissolution of rebaudioside A polymorphic and amorphous forms in water; assay type: physicochemical

Compound | Concentration dissolved rapidly in water [1] | Rate of dissolution in H2O at 25° C. (grade in words) [2] | Rate of dissolution in H2O at 25° C., amount dissolved in 60 minutes ([2]; in 60 minutes) | Rate of dissolution in H2O at 25° C., amount dissolved in 5 minutes [2]
C=C1C[C@@]23CC[C@H]4[C@@](C)(CCC[C@@]4(C)C(=O)O[C@@H]4O[C@H](CO)[C@@H](O)[C@H](O)[C@H]4O)[C@@H]2CC[C@]1(O[C@@H]1O[C@H](CO)[C@@H](O)[C@H](O[C@@H]2O[C@H](CO)[C@@H](O)[C@H](O)[C@H]2O)[C@H]1O[C@@H]1O[C@H](CO)[C@@H](O)[C@H](O)[C@H]1O)C3 [Example F, rebaudioside A] | ≤ 35.0 % (w/v) |  |  | 
C=C1C[C@@]23CC[C@H]4[C@@](C)(CCC[C@@]4(C)C(=O)O[C@@H]4O[C@H](CO)[C@@H](O)[C@H](O)[C@H]4O)[C@@H]2CC[C@]1(O[C@@H]1O[C@H](CO)[C@@H](O)[C@H](O[C@@H]2O[C@H](CO)[C@@H](O)[C@H](O)[C@H]2O)[C@H]1O[C@@H]1O[C@H](CO)[C@@H](O)[C@H](O)[C@H]1O)C3 [Form 1, rebaudioside A] |  | Very low | (<0.2% in | 
C=C1C[C@@]23CC[C@H]4[C@@](C)(CCC[C@@]4(C)C(=O)O[C@@H]4O[C@H](CO)[C@@H](O)[C@H](O)[C@H]4O)[C@@H]2CC[C@]1(O[C@@H]1O[C@H](CO)[C@@H](O)[C@H](O[C@@H]2O[C@H](CO)[C@@H](O)[C@H](O)[C@H]2O)[C@H]1O[C@@H]1O[C@H](CO)[C@@H](O)[C@H](O)[C@H]1O)C3 [Form 2, rebaudioside A] |  | Intermediate |  | (<30% in
C=C1C[C@@]23CC[C@H]4[C@@](C)(CCC[C@@]4(C)C(=O)O[C@@H]4O[C@H](CO)[C@@H](O)[C@H](O)[C@H]4O)[C@@H]2CC[C@]1(O[C@@H]1O[C@H](CO)[C@@H](O)[C@H](O[C@@H]2O[C@H](CO)[C@@H](O)[C@H](O)[C@H]2O)[C@H]1O[C@@H]1O[C@H](CO)[C@@H](O)[C@H](O)[C@H]1O)C3 [Form 3, rebaudioside A] |  | High |  | (>30% in
C=C1C[C@@]23CC[C@H]4[C@@](C)(CCC[C@@]4(C)C(=O)O[C@@H]4O[C@H](CO)[C@@H](O)[C@H](O)[C@H]4O)[C@@H]2CC[C@]1(O[C@@H]1O[C@H](CO)[C@@H](O)[C@H](O[C@@H]2O[C@H](CO)[C@@H](O)[C@H](O)[C@H]2O)[C@H]1O[C@@H]1O[C@H](CO)[C@@H](O)[C@H](O)[C@H]1O)C3 [Form 4, rebaudioside A] |  | High |  | (>35% in
